Laboratory results: patent publication US7141590B2, “Pharmaceutical uses and synthesis of nicotinanilide-N-oxides” (UCB SA, priority 2000, dated 2006)

T1: IL-8 type β receptor (IL-8Rβ) (Homo sapiens, UniProt P25025)
T1 construct: purchased BioSignal, Montreal, Canada; host or cells: Sf9 cells
T1 sequence (P25025 1-360): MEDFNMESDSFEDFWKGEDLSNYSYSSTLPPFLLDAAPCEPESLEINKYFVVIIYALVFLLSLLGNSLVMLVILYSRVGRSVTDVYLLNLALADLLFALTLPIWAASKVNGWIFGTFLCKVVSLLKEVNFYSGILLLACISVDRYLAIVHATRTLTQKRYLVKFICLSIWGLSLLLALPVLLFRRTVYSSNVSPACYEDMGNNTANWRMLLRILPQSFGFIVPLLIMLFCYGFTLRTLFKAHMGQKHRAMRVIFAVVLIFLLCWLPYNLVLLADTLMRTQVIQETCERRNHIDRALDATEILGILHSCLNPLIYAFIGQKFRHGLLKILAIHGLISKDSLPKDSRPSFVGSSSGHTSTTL

B1: MIP-1β: microphage inflammatory protein; standard reference agent used in CCR5 assay (protein, UniProt P13236 24-92, looked up)
C-C motif chemokine 4: APMGSDPPTACCFSYTARKLPRNFVVDYYETSSLCSQPAVVFQTKRSKQVCADPSESWVQEYVYDLELN
modifications: ends and bridges not checked

Columns and labels:
[1] = biological target: T2, human chemokine CCR5 receptor (Homo sapiens, UniProt P51681); settings: CCR5 reference data; cited from earlier work
T2 construct: host or cells: CHO-K1-p242-CCR5 cells
T2 sequence (P51681 whole entry): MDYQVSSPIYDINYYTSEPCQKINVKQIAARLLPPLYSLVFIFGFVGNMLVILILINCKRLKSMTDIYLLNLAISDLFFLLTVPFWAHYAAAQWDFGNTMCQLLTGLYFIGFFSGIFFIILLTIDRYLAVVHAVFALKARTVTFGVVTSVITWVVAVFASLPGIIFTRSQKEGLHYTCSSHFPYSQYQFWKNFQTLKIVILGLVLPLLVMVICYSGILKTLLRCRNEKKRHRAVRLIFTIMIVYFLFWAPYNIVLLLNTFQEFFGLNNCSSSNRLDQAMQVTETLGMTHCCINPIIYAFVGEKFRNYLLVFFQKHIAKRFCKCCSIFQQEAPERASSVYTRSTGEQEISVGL

[2] = tested on: polymorphonuclear neutrophils (PMNs); test: GRO-α driven chemotaxis assay with PMNs (ChemoTx plate); format: cell-based; settings: 20 μM compound; 50 nM GRO-α, human PMNs
Experimental: Peripheral blood from healthy human volunteers was collected into heparin, diluted in an equal volume of PBS, layered over Ficoll-Paque Plus (Pharmacia Biotech, Uppsala, Sweden), and spun at 400×g for 30 min. The PMN rich fraction was removed and residual erythrocytes were lysed with hypotonic saline. The polymorphonuclear neutrophils (PMNs) were washed once with assay buffer (Dulbecco's PBS containing divalent cations and 0.1% endotoxin-free BSA), and resuspended at 1E7 cells/mL in the same buffer. PMNs were loaded with 5 μM calcein AM (Molecular Probes, Eugene, Oreg.), washed twice and resuspended in assay buffer.
Growth Regulatory Oncogene a (GRO-α) driven chemotaxis assays were performed according to the following protocol. […] Test compounds were dissolved in DMSO (100%) at 20 mM and diluted in assay buffer to the desired concentrations; final DMSO concentration was 0.2%. Neutrophil migration proceeded for 40 min at 37° C. in a humidified incubator with 5% CO2. After removing nonmigrated cells from the top of the plate, migrated cells were quantified by reading fluorescence on a Wallac Victor.
The ratio of the positive to negative controls represents the chemotactic index of the cells. The results from this assay are reported in Tables 3–5, under the column headings IL-8 and GRO-α, and under the sub-column headings ChTx (for chemotaxis).

[3] = biological target: T1, IL-8 type β receptor (IL-8Rβ); test: [125I] IL-8 binding assay (WGA-SPA beads, IL-8Rβ membranes); settings: 20 uM compound; [125I] IL-8, IL-8Rβ membranes
Experimental: IL-8 (human recombinant) was obtained from NEN Life Science Products, Inc., Boston, Mass., with specific activity of 2200 Ci/mmol. Recombinant human IL-8 was obtained from R&D Systems, Minneapolis, Minn. IL-8 type β receptor membranes were prepared from […] co-expressed with Gαi3β1γ2 proteins by BioSignal™, Montreal, Canada. Wheat Germ Agglutinin Scintillation Proximity Assay Beads were obtained from Amersham Pharmacia Biotech, Piscataway, N.J. All assays were performed in a 96-well, solvent resistant, white PicoPlate obtained from Packard Instruments. […] The assay was initiated by the addition of WGA-SPA beads in 25 mM Hepes (pH 7.4) containing 2 mM CaCl2 and 1 mM MgCl2. After 4–6 hours of gentle agitation at room temperature, the plate was counted on the Packard TopCount liquid scintillation counter.

Molecule	IC50 [1] [nM]	Ki [1] [nM]	nH [1]	GRO-α ChTx @ 20 μM, % [2]	IL-8 Binding @ 20 uM, % [3]
RANTES: regulated on activation of normal T-cell expressed and secreted	0.012	0.0093	0.9		
MIP-1α: microphage inflammatory protein	0.039	0.03	0.8		
Cc1cc(NC(=O)c2ccc(Cl)[n+]([O-])c2)ccc1Br				** (“**” for % values greater than 40)	* (“*” for % values of less than or equal to 40)
O=C(Nc1ccc(OCc2ccccc2)cc1)c1ccc(Cl)[n+]([O-])c1				** (“**” for % values greater than 40)	* (“*” for % values of less than or equal to 40)
O=C(O)CCS(=O)(=O)c1ccc(C(=O)Nc2ccc(F)cc2)c[n+]1[O-]				* (“*” for % values of less than or equal to 40)	** (“**” for % values greater than 40)
O=C(Nc1ccc(F)cc1)c1ccc(-n2ccnc2)[n+]([O-])c1				* (“*” for % values of less than or equal to 40)	* (“*” for % values of less than or equal to 40)
O=C(Nc1cccc(F)c1)c1ccc(Cl)[n+]([O-])c1				** (“**” for % values greater than 40)	* (“*” for % values of less than or equal to 40)
O=C(Nc1ccc(F)cc1)c1ccc(Cl)[n+]([O-])c1 [Cl—, 6-Chloro-N-(4-fluoro-phenyl)-1-oxy-nicotinamide]				** (“**” for % values greater than 40)	**(1) (“**” for % values greater than 40)
CS(=O)(=O)c1ccc(C(=O)Nc2ccc(F)cc2)c[n+]1[O-] [drawing 44]				** (“**” for % values greater than 40)	** (“**” for % values greater than 40)
O=C(Nc1ccc(F)cc1)c1ccc(S(=O)(=O)C2CCCC2)[n+]([O-])c1 [drawing 53]				** (“**” for % values greater than 40)	** (“**” for % values greater than 40)
CCSc1ccc(C(=O)Nc2ccc(F)cc2)c[n+]1[O-]				* (“*” for % values of less than or equal to 40)	* (“*” for % values of less than or equal to 40)
O=C(Nc1ccc(F)cc1)c1ccc(S(=O)(=O)c2ccccc2)[n+]([O-])c1 [drawing 47]				** (“**” for % values greater than 40)	** (“**” for % values greater than 40)
O=C(O)c1cccc(S(=O)(=O)c2ccc(C(=O)Nc3ccc(F)cc3)c[n+]2[O-])c1				* (“*” for % values of less than or equal to 40)	** (“**” for % values greater than 40)
O=C(Nc1ccc(I)cc1)c1ccc(Cl)[n+]([O-])c1				** (“**” for % values greater than 40)	* (“*” for % values of less than or equal to 40)
O=C(Nc1ccc(OC(F)(F)F)cc1)c1ccc(Cl)[n+]([O-])c1				* (“*” for % values of less than or equal to 40)	* (“*” for % values of less than or equal to 40)
CSc1ccc(C(=O)Nc2ccc(F)cc2)c[n+]1[O-]				** (“**” for % values greater than 40)	** (“**” for % values greater than 40)
O=C(NC1CCCC1)c1ccc(Cl)[n+]([O-])c1				* (“*” for % values of less than or equal to 40)	* (“*” for % values of less than or equal to 40)
Nc1ccc(C(=O)Nc2ccc(F)cc2)c[n+]1[O-]				* (“*” for % values of less than or equal to 40)	* (“*” for % values of less than or equal to 40)
CCCS(=O)(=O)c1ccc(C(=O)Nc2ccc(F)cc2)c[n+]1[O-] [drawing 51]				** (“**” for % values greater than 40)	** (“**” for % values greater than 40)
O=C(NCc1ccco1)c1ccc(Cl)[n+]([O-])c1				* (“*” for % values of less than or equal to 40)	* (“*” for % values of less than or equal to 40)
O=C(Nc1ccccc1F)c1ccc(Cl)[n+]([O-])c1				** (“**” for % values greater than 40)	* (“*” for % values of less than or equal to 40)
Cc1ccc(C(=O)Nc2ccc(F)cc2)c[n+]1[O-]				* (“*” for % values of less than or equal to 40)	*(2) (“*” for % values of less than or equal to 40)
CNc1ccc(C(=O)Nc2ccc(F)cc2)c[n+]1[O-]				** (“**” for % values greater than 40)	** (“**” for % values greater than 40)
O=C(Nc1cccc(OC(F)(F)F)c1)c1ccc(Cl)[n+]([O-])c1				* (“*” for % values of less than or equal to 40)	* (“*” for % values of less than or equal to 40)
O=C(Nc1ccc(F)cc1)c1ccc(NCCO)[n+]([O-])c1				** (“**” for % values greater than 40)	* (“*” for % values of less than or equal to 40)
B1	0.074	0.057	0.9		
